Data on 2 substances can be found in US8409825B2, “Method for high-level secretory production of protein” (National Institute of Advanced Industrial Science and …, priority 2007, dated 2013).

Where “and” joins values, the source holds several entries; their conditions need not be identical. Equal values may be shown once. Read-outs that look alike come from different tables or passages of the source.

For series [1], the system named is S. cerevisiae ZUO1/YGR285C strain. To be noted: control strain.
Method: The S. cerevisiae ZUO1/YGR285C strain was sowed in 5 ml of YPAD medium (YPD medium containing 0.04% adenine (Sigma)), and yeast cells resulting from overnight culture at 30° C. and 310 rpm were used.
ST medium (500 μl) (Yeast Nitrogen Base and Ammonium sulfate medium containing 2% glucose, 0.04% adenine, and 0.3M KCl and lacking uracil and leucine (Sigma)) was applied onto a 96-deep well plate (Greiner, 780271), the transformant was sowed with the use of a toothpick, the top of the plate was sealed with CO2-permeable plate sealers (Greiner, 676051), and culture was carried out at an agitation speed of 310 rpm, an amplitude of 50 mm, at 30° C. for 3 days. Control culture was carried out by applying 1 ml of YPAD medium to a 96-deep well plate (Greiner, 780271). […] The culture solution that had been cultured in ST medium was sowed to a final concentration of 5%, and the top of the plate was sealed with CO2-permeable plate sealers (Greiner, 676051). Thereafter, culture was carried out at an agitation speed of 310 rpm, an amplitude of 50 mm, at 30° C. for 3 days. The culture supernatant was prepared from the culture solution and it was designated as a sample containing an antibody secreted and produced by yeast. […]
Series [2] relates to O. minuta PMT4-deficient strain (ona98808 strain). The conditions noted are these: 0.25 μM 1c (final concentration), FIG. 26.
Method: The antibody-producing strain was cultured in the following manner. With the use of 2× YP-P6-GG medium (the medium was prepared by dissolving 20 g of Difco yeast extract and 40 g of Bacto peptone in 900 ml of pure water, sterilizing the solution via steaming under pressure, and adding 100 ml of separately sterilized 10× phosphate buffer (pH 6.0) (1M KH2PO4, 0.15M (NH4)2SO4, 0.375N KOH), 10 ml of a separately sterilized 50% glucose solution, and 25 ml of separately sterilized 80% glycerine), 800 μl of 2× YP-P6-GG medium was introduced into a 96-deep well plate (Greiner, 780271), the strains were sowed with the use of a toothpick, and the top of the plate was sealed with CO2-permeable plate sealers (Greiner, 676051). […]
Yeast cells were removed from the culture product via centrifugation at 2,700×g and 4° C. for 5 minutes, and the resulting culture supernatant was designated as a sample of secreted antibody. The secreted and produced antibodies were subjected to quantitative assay via sandwich ELISA. […] After the protein was subjected to SDS-PAGE under reducing and non-reducing conditions, the separated protein was blotted to a PVDF membrane, and the antibody heavy chain and light chain were detected using Anti-human IgG (γ-chain specific) (Sigma, I-3382) and Goat anti human kappa b&f affinity purified (Bethyl, A-80-115A) as the primary antibodies. […]
The test system of series [3] is antibody-producing yeast strain (ona02306 strain). To be noted: for amount of antibody production: control 0.8 mg/l, FIG. 5.
Method: Control culture was carried out at an agitation speed of 310 rpm, an amplitude of 50 mm, at 30° C. for 2 days, 100 μl of 2× YP-P6-GG medium was added, and 100 μl of 2× YP-P6-GG medium was further added on day 3. In the case of culture involving single addition of a rhodanine-3-acetic acid derivative 1c, culture was carried out at an agitation speed of 310 rpm, an amplitude of 50 mm, at 30° C. for 2 days, 100 μl of 2× YP-P6-GG medium was added, and 100 μl of 2× YP-P6-GG medium containing 20 μM of 1c was further added on day 3. In the case of culture involving addition of a rhodanine-3-acetic acid derivative 1c twice, culture was carried out at an agitation speed of 310 rpm, an amplitude of 50 mm, at 30° C. for 2 days, 100 μl of 2× YP-P6-GG medium containing 20 μM of 1c was added, and 100 μl of 2× YP-P6-GG medium containing 20 μM of 1c was further added on day 3.
Yeast cells were removed from the culture product via centrifugation at 2,700×g and 4° C. for 5 minutes, and the resulting culture supernatant was designated as a sample of secreted antibody. The secreted and produced antibodies were subjected to quantitative assay via sandwich ELISA. TRAIL receptor proteins that were antigens of the anti-TRAIL receptor antibodies were adsorbed on a 96-well plate, the sample of secreted antibody was added, and detection was carried out using a peroxidase-labeled human IgG specific Fc antibody (Peroxidase-labeled affinity purified antibody to human IgG (Fc) (KPL, 04-10-20)) and the ABTS peroxidase substrate (KPL, 50-66-01).
Western blotting was carried out as follows. After the protein was subjected to SDS-PAGE under reducing and non-reducing conditions, the separated protein was blotted to a PVDF membrane, and the antibody heavy chain and the light chain were detected using Anti-human IgG (γ-chain specific) (Sigma, I-3382) and Goat anti human kappa b&f affinity purified (Bethyl, A-80-115A) as the primary antibodies. Peroxidase conjugated affinity purified anti-goat IgG (H&L) (Rabbit) (Rockland, #605-4313) was used as the secondary antibody. […]
Another series relates to M. lysodeikticus. In words: Bacteriolytic activity of secreted human lysozyme. It counts as biochemical. To be noted: Table 3. The text has this:
The expression vector for the aMF secretory signal-fused hLyz gene, onaP21808, was introduced into the ona01206 strain into which no chaperone combination was introduced, a strain that constitutively expresses a combination of O. minuta-derived chaperone genes; i.e., OmPDI1, OmERO1, and OmKar2, (i.e., the ona44607 strain), and a strain that constitutively expresses a combination of human-derived chaperone genes; i.e., synthetic hPDI, synthetic hERO1-Lβ, and synthetic hGRP78, (i.e., the ona68908 strain). Three clones were arbitrarily selected from the resulting colonies and cultured.
Also, bacteriolytic activity was assayed in the following manner. Bacteria of M. lysodeikticus was used as a substrate, and it was suspended in 50 mM phosphate buffer to prepare a substrate solution with a concentration of 0.16 mg/ml. To 240 μl of this substrate solution, 10 μl of a culture supernatant (the secreted human lysozyme) was added, and the mixture was incubated at room temperature for 10 minutes. Thereafter, the absorbance at 450 nm was assayed. […] Thus, a unit of lysozyme activity was defined as the amount of an enzyme that is necessary for the absorbance at 450 nm to be lowered by 0.001 per minute. Also, the total amount of proteins in the culture supernatant was assayed using the DC protein assay kit II (Bio-Rad, 500-0112JA) using bovine serum albumin as the standard.

As for “5-[[3,4-(1-phenylmethoxy)phenyl]methylene]-4-oxo-2-thioxo-3-thiazolidineacetic acid [rhodanine-3-acetic acid derivative 1c]”, the “increase of amount of antibody secretory production when addition of an O-sugar chain was suppressed” value in series [1] (1c final concentration 10 μM, versus control culture) is listed as “approximately 2.5 times”. In series [1] (O-sugar chain addition suppressed (1c final concentration 10 μM), without 1c 3.9 ng/ml, FIG. 14), the “amount of antibody secretory production” value was found to be 10 ng/mL. Moreover, the “improvement of the amount of production” value in series [2] is listed as “approximately 13%”. In addition, in series [3] (addition of PMT inhibitors to culture, FIG. 6), the “high-molecular-weight antibody heavy chain (Western blot, reducing electrophoresis)” value is reported as “decreased”. Moreover, the “amount of antibody production” value is “approximately 1.9 mg/l” in series [3] (addition of PMT inhibitors twice (100 μl medium containing 20 μM 1c on day 2 and day 3)); “approximately 1.7 mg/l” in series [3] (single addition of PMT inhibitors (100 μl medium containing 20 μM 1c on day 3)).

In the case of “Ona68908: secreted human lysozyme sample from strain expressing synthetic hPDI, synthetic hERO1-Lβ, and synthetic hGRP78”, the Bacteriolytic activity with M. lysodeikticus (culture supernatant, clones 1 to 3, 10 minutes at room temperature, absorbance at 450 nm) is 36.0 unit/ml and 29.3 unit/ml and 33.3 unit/ml. Besides, the Specific activity in the series with M. lysodeikticus (per total amount of protein in culture supernatant, clones 1 to 3) is 0.68 unit/mg and 0.61 unit/mg and 0.65 unit/mg.
